Reference: paper PMC10597491 (PLOS ONE, 2023)
Bridge positions count the residues as written; N and C are the ends. Ends that are not written are not given here.

What was measured:
human IL-7Rα ECD = target: T1, human IL-7Rα ECD (Homo sapiens, UniProt P16871); experiment: Competition binding ELISA, human IL-7Rα ECD; settings: immobilized IL-7Rα-(His)6 ECD; tracer biotinylated MDK1248 pre-complexed with Neutravidin-HRP; 4°C; valency-sensitive format
T1 construct: IL-7Rα(aa 21–236)-His6, Sino Biological Cat# 10975-H08H; His6 (C); purchased Sino Biological 10975-H08H
T1 sequence (P16871 21-236): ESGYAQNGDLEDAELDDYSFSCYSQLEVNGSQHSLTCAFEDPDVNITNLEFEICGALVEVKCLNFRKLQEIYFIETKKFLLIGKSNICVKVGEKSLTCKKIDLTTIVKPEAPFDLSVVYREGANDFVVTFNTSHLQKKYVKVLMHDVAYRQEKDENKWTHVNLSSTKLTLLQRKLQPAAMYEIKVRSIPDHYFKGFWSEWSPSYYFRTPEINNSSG
Source text: (A, B) Determination of IC50 values in a competition ELISA for compound binding to human and cyno IL-7Rα and γc. The assay format is IL-7Rα-(His)6-tagged ECD or Fc-γc ECD immobilized on 96-well plates. Tracers are C-terminal biotinylated forms of the reference IL-7Rα and γc peptide ligands, each pre-complexed with Neutravidin-HRP (NA-HRP). (C, D) Label-free measurement of the equilibrium dissociation constant (KD) for peptide binding to IL-7Rα and γc extracellular domains with peptides was performed by biolayer interferometry as detailed in methods. Red lines depict 1:1 binding fit from Gator™ software. Blue lines represent individual BLI sensogram data taken every 0.1 seconds.
Binding was determined using a competition binding ELISA. Microtiter plates (Immulon 4HBX flat bottom 96-well) were coated with 50 μL of […] human ECDs: IL-7Rα(aa 21–236)-His6, Sino Biological Cat# 10975-H08H; cynomolgus IL-7Rα(aa 21–235)-His6, Sino Biological Cat# 90332-C08H; human IL-2Rα(aa 23–254)-Fc, Acro Cat# ILG-H5256; cynomolgus IL-2Rα(aa 23–254)-Fc, made in-house, in PBS overnight at 4°C. […] Plates were washed with cold wash buffer, and bound tracer was detected using TMB One Component HRP substrate and Stop Solution (Surmodics Cat# TMBW-1000-01 and LSTP-0100-01). Absorbance at 450 nm was read using Agilent BioTek Synergy HTX Multimode Reader.

human PBMCs = experiment: pSTAT5 flow cytometry in human PBMC subsets; assay type: cell-based
Source text: Frozen PBMCs from 5 healthy human donors (A, B) and cynomolgus monkey (C) were rested (A, C) or activated with anti-CD3/CD28 (B). Cells were stained for viability, followed by cell surface antibody staining on ice. […] After washing, cells were fixed, permeabilized, stained with anti-pSTAT5 antibody, and analyzed immediately by flow cytometry. The mean fluorescence intensity (MFI) of pSTAT5 detection was shown as mean ± SEM. […] Flow cytometry gating data shown in S2 Fig.
To detect phopho-STAT5 in immune subsets of PBMCs by flow cytometry, frozen human and cynomolgus macaques PBMCs (Stemcell Technologies, Cat# 70025.2 and iQ Biosciences, Cat# IQB-MnPB102, respectively) from 5 different healthy donors were thawed and rested overnight in T-cell media (CTS™ OpTmizer™ T-Cell Expansion SFM, ThermoFisher Scientific Cat# A1048501) at 37°C. Cells were stained with a viability dye for 30 min at 37°C followed by surface marker antibodies for 30 min on ice (S3 Table), then treated with serially diluted test compounds in the medium for 30 min. […] Antibody-stained cells were analyzed immediately by flow cytometry using the Novocyte Advanteon instrument (Agilent), and the data were analyzed using FlowJo software. Fluorescence minus one (FMO) controls were used to draw gates. […]

IC50 (human IL-7Rα ECD)	Substance	pSTAT5 response of NK cells (human PBMCs)
340 nM	Ac-GWGIPWCTLDPGSLQCAWLGKHGGGGSGGVVCQDWEGVELCWQGG (disulfide 7-16, 32-41) [MDK1472]	
	IL-7: human IL-7 cytokine (Peprotech)	no pSTAT5 response
